Consider 36 molecules from patent US8912189B2, “Pyridopyrazine derivatives and their use” (Aeterna Zentaris GmbH, priority 2011, dated 2014).

Molecules are shown by their SMILES.

What is called melting point is the temperature of the solid-liquid transition. The molecule `CCNC(=O)Nc1ccc2ncc(-c3cnn(Cc4cc(OC)c(OC)c(OC)c4)c3)nc2n1` [Compound 1, 1-Ethyl-3-{3-[1-(3,4,5-trimethoxy-benzyl)-1H-pyrazol-4-yl]-pyrido[2,3-b]pyrazin-6-yl}-urea] had a melting point of 219 °C. The value for `CCNC(=O)Nc1ccc2ncc(-c3cnn(Cc4cccc(OC(F)F)c4)c3)nc2n1` [Compound 3, 1-{3-[1-(3-Difluoromethoxy-benzyl)-1H-pyrazol-4-yl]-pyrido[2,3-b]pyrazin-6-yl}-3-ethyl-urea] was 198 °C; that for `CCNC(=O)Nc1ccc2ncc(-c3cnn(Cc4cccc(O)c4)c3)nc2n1` [Compound 4, 1-Ethyl-3-{3-[1-(3-hydroxy-benzyl)-1H-pyrazol-4-yl]-pyrido[2,3-b]pyrazin-6-yl}-urea] was 242 °C; that for `CCNC(=S)Nc1ccc2ncc(-c3cnn(Cc4ccc5c(c4)OCO5)c3)nc2n1` [Compound 5, 1-[3-(1-Benzo[1,3]dioxol-5-ylmethyl-1H-pyrazol-4-yl)-pyrido[2,3-b]pyrazin-6-yl]-3-ethyl-thiourea] was 244 °C. The value for `CCNC(=O)Nc1ccc2ncc(-c3cnn(Cc4ccc(OC(F)(F)F)cc4)c3)nc2n1` [Compound 6, 1-Ethyl-3-{3-[1-(4-trifluoromethoxy-benzyl)-1H-pyrazol-4-yl]-pyrido[2,3-b]pyrazin-6-yl}-urea] was 231 °C; that for `COCCNC(=S)Nc1ccc2ncc(-c3cnn(Cc4ccc(OC)c(OC)c4)c3)nc2n1` [Compound 7, 1-{3-[1-(3,4-Dimethoxy-benzyl)-1H-pyrazol-4-yl]-pyrido[2,3-b]pyrazin-6-yl}-3-(2-methoxy-ethyl)-thiourea] was 198 °C; that for `CCNC(=O)Nc1ccc2ncc(-c3cnn(Cc4ccc(F)c(Cl)c4)c3)nc2n1` [Compound 8, 1-{3-[1-(3-Chloro-4-fluoro-benzyl)-1H-pyrazol-4-yl]-pyrido[2,3-b]pyrazin-6-yl}-3-ethyl-urea] was 214 to 219 °C. As to `CCNC(=O)Nc1ccc2ncc(-c3cnn(CCCc4ccccc4)c3)nc2n1` [Compound 9, 1-Ethyl-3-{3-[1-(3-phenyl-propyl)-1H-pyrazol-4-yl]-pyrido[2,3-b]pyrazin-6-yl}-urea], the melting point was 251 °C. The value for `CCNC(=O)Nc1ccc2ncc(-c3cnn(Cc4ccc(C#N)cc4)c3)nc2n1` [Compound 10, 1-{3-[1-(4-Cyano-benzyl)-1H-pyrazol-4-yl]-pyrido[2,3-b]pyrazin-6-yl}-3-ethyl-urea] was 208 to 215 °C. The value for `CCNC(=O)Nc1ccc2ncc(-c3cnn(Cc4ccc(OC(F)F)cc4)c3)nc2n1` [Compound 11, 1-{3-[1-(4-Difluoromethoxy-benzyl)-1H-pyrazol-4-yl]-pyrido[2,3-b]pyrazin-6-yl}-3-ethyl-urea] was 239 °C; that for `CCNC(=O)Nc1ccc2ncc(-c3cnn(Cc4cccc(C)c4)c3)nc2n1` [Compound 13, 1-Ethyl-3-{3-[1-(3-methyl-benzyl)-1H-pyrazol-4-yl]-pyrido[2,3-b]pyrazin-6-yl}-urea] was 208 to 210 °C; that for `CCNC(=O)Nc1ccc2ncc(-c3cnn(Cc4ccc(C)cc4)c3)nc2n1` [Compound 15, 1-Ethyl-3-{3-[1-(4-methyl-benzyl)-1H-pyrazol-4-yl]-pyrido[2,3-b]pyrazin-6-yl}-urea] was 217 to 220 °C.

`CCNC(=O)Nc1ccc2ncc(-c3cnn(CCCCc4ccccc4)c3)nc2n1` [Compound 16, 1-Ethyl-3-{3-[1-(4-phenyl-butyl)-1H-pyrazol-4-yl]-pyrido[2,3-b]pyrazin-6-yl}-urea] yielded a melting point of 182 °C. As to `CCNC(=O)Nc1ccc2ncc(-c3cnn(Cc4ccc(Cl)cc4)c3)nc2n1` [Compound 18, 1-{3-[1-(4-Chloro-benzyl)-1H-pyrazol-4-yl]-pyrido[2,3-b]pyrazin-6-yl}-3-ethyl-urea], the melting point fell in the range of 240 to 244 °C.

With `CCNC(=S)Nc1ccc2ncc(-c3cnn(Cc4cc(OC)ccc4OC)c3)nc2n1` [Compound 19, 1-{3-[1-(2,5-Dimethoxy-benzyl)-1H-pyrazol-4-yl]-pyrido[2,3-b]pyrazin-6-yl}-3-ethyl-thiourea], the melting point is 225 °C. Molecule `CCNC(=S)Nc1ccc2ncc(-c3cnn(Cc4ccc(C)cc4)c3)nc2n1` [Compound 20, 1-Ethyl-3-{3-[1-(4-methyl-benzyl)-1H-pyrazol-4-yl]-pyrido[2,3-b]pyrazin-6-yl}-thiourea] returned a melting point of 241 °C. The value for `CCNC(=S)Nc1ccc2ncc(-c3cnn(Cc4cccc(OCc5ccccc5)c4)c3)nc2n1` [Compound 21, 1-{3-[1-(3-Benzyloxy-benzyl)-1H-pyrazol-4-yl]-pyrido[2,3-b]pyrazin-6-yl}-3-ethyl-thiourea] was 203 to 205 °C. The value for `CCNC(=O)Nc1ccc2ncc(-c3cnn(Cc4ccc(Br)c(C)c4)c3)nc2n1` [Compound 22, 1-{3-[1-(4-Bromo-3-methyl-benzyl)-1H-pyrazol-4-yl]-pyrido[2,3-b]pyrazin-6-yl}-3-ethyl-urea] was 250 to 252 °C; that for `CCNC(=S)Nc1ccc2ncc(-c3cnn(Cc4ccc(OC)cc4)c3)nc2n1` [Compound 23, 1-Ethyl-3-{3-[1-(4-methoxy-benzyl)-1H-pyrazol-4-yl]-pyrido[2,3-b]pyrazin-6-yl}-thiourea] was 237 °C. On to `CCNC(=S)Nc1ccc2ncc(-c3cnn(Cc4cccnc4)c3)nc2n1` [Compound 24, 1-Ethyl-3-[3-(1-pyridin-3-ylmethyl-1H-pyrazol-4-yl)-pyrido[2,3-b]pyrazin-6-yl]-thiourea], for which the melting point stood at 238 °C. The value for `CCNC(=S)Nc1ccc2ncc(-c3cnn(Cc4cc(C)cc(F)c4)c3)nc2n1` [Compound 25, 1-Ethyl-3-{3-[1-(3-fluoro-5-methyl-benzyl)-1H-pyrazol-4-yl]-pyrido[2,3-b]pyrazin-6-yl}-thiourea] was 257 to 259 °C. The value for `CCNC(=S)Nc1ccc2ncc(-c3cnn(Cc4cccc(OC)c4OC)c3)nc2n1` [Compound 26, 1-{3-[1-(2,3-Dimethoxy-benzyl)-1H-pyrazol-4-yl]-pyrido[2,3-b]pyrazin-6-yl}-3-ethyl-thiourea] was 218 to 222 °C; that for `COCCNC(=S)Nc1ccc2ncc(-c3cnn(Cc4ccccc4)c3)nc2n1` [Compound 31, 1-[3-(1-Benzyl-1H-pyrazol-4-yl)-pyrido[2,3-b]pyrazin-6-yl]-3-(2-methoxy-ethyl)-thiourea] was 219 °C; that for `COCCNC(=S)Nc1ccc2ncc(-c3cnn(Cc4cccc(OC)c4)c3)nc2n1` [Compound 32, 1-{3-[1-(3-Methoxy-benzyl)-1H-pyrazol-4-yl]-pyrido[2,3-b]pyrazin-6-yl}-3-(2-methoxy-ethyl)-thiourea] was 215 °C. The value for `COCNC(=S)Nc1ccc2ncc(-c3cnn(Cc4cccc(OC)c4)c3)nc2n1` [Compound 33, 1-{3-[1-(3-Methoxy-benzyl)-1H-pyrazol-4-yl]-pyrido[2,3-b]pyrazin-6-yl}-3-methoxymethyl-thiourea] was 187 °C; that for `COCNC(=S)Nc1ccc2ncc(-c3cnn(Cc4ccc(OC)c(OC)c4)c3)nc2n1` [Compound 35, 1-{3-[1-(3,4-Dimethoxy-benzyl)-1H-pyrazol-4-yl]-pyrido[2,3-b]pyrazin-6-yl}-3-methoxymethyl-thiourea] was 188 °C. For `CCNC(=S)Nc1ccc2ncc(-c3cnn(Cc4cccc(O)c4)c3)nc2n1` [Compound 36, 1-Ethyl-3-{3-[1-(3-hydroxy-benzyl)-1H-pyrazol-4-yl]-pyrido[2,3-b]pyrazin-6-yl}-thiourea], the melting point amounted to 239 °C. The value for `CCNC(=S)Nc1ccc2ncc(-c3cnn(Cc4cccc(N(C)C)c4)c3)nc2n1` [Compound 37, 1-{3-[1-(3-Dimethylamino-benzyl)-1H-pyrazol-4-yl]-pyrido[2,3-b]pyrazin-6-yl}-3-ethyl-thiourea] was 215 °C; that for `CCNC(=S)Nc1ccc2ncc(-c3cnn(Cc4ccc(F)c(Cl)c4)c3)nc2n1` [Compound 38, 1-{3-[1-(3-Chloro-4-fluoro-benzyl)-1H-pyrazol-4-yl]-pyrido[2,3-b]pyrazin-6-yl}-3-ethyl-thiourea] was 235 to 238 °C. The value for `CCNC(=S)Nc1ccc2ncc(-c3cnn(Cc4cc(OC)cc(OC)c4)c3)nc2n1` [Compound 39, 1-{3-[1-(3,5-Dimethoxy-benzyl)-1H-pyrazol-4-yl]-pyrido[2,3-b]pyrazin-6-yl}-3-ethyl-thiourea] was 230 °C; that for `CCNC(=S)Nc1ccc2ncc(-c3cnn(Cc4ccc(OC)c(OC)c4OC)c3)nc2n1` [Compound 43, 1-Ethyl-3-{3-[1-(2,3,4-trimethoxy-benzyl)-1H-pyrazol-4-yl]-pyrido[2,3-b]pyrazin-6-yl}-thiourea] was 213 °C.

`CCNC(=S)Nc1ccc2ncc(-c3cnn(CCCc4ccccc4)c3)nc2n1` [Compound 44, 1-Ethyl-3-{3-[1-(3-phenyl-propyl)-1H-pyrazol-4-yl]-pyrido[2,3-b]pyrazin-6-yl}-thiourea] had a melting point of 206 to 208 °C.

Molecule `CCNC(=S)Nc1ccc2ncc(-c3cnn(Cc4cc(OC)c(OC)c(OC)c4)c3)nc2n1` [Compound 46, 1-Ethyl-3-{3-[1-(3,4,5-trimethoxy-benzyl)-1H-pyrazol-4-yl]-pyrido[2,3-b]pyrazin-6-yl}-thiourea] displayed a melting point of 232 °C.

As to `COc1cccc(Cn2cc(-c3cnc4ccc(NC(=S)NCC(F)(F)F)nc4n3)cn2)c1` [Compound 47, 1-{3-[1-(3-Methoxy-benzyl)-1H-pyrazol-4-yl]-pyrido[2,3-b]pyrazin-6-yl}-3-(2,2,2-trifluoro-ethyl)-thiourea], the melting point was 217 °C. The value for `CCNC(=S)Nc1ccc2ncc(-c3cnn(Cc4cccc(C)c4F)c3)nc2n1` [Compound 48, 1-Ethyl-3-{3-[1-(2-fluoro-3-methyl-benzyl)-1H-pyrazol-4-yl]-pyrido[2,3-b]pyrazin-6-yl}-thiourea] was 242 to 245 °C; that for `CCNC(=S)Nc1ccc2ncc(-c3cnn(Cc4cccc(OCC)c4)c3)nc2n1` [Compound 49, 1-{3-[1-(3-Ethoxy-benzyl)-1H-pyrazol-4-yl]-pyrido[2,3-b]pyrazin-6-yl}-3-ethyl-thiourea] was 222 °C.
